What is called IC50 is the concentration at which inhibition is half-maximal. High values mean a need for much substance, low ones inhibition by little substance.

In assay [1] the target is T1, hRIPK1 (aa 1-375) fusion protein (Homo sapiens, UniProt Q13546).
T1 construct: hRIPK1 (aa 1-375) fusion protein
T1 sequence (Q13546 1-375): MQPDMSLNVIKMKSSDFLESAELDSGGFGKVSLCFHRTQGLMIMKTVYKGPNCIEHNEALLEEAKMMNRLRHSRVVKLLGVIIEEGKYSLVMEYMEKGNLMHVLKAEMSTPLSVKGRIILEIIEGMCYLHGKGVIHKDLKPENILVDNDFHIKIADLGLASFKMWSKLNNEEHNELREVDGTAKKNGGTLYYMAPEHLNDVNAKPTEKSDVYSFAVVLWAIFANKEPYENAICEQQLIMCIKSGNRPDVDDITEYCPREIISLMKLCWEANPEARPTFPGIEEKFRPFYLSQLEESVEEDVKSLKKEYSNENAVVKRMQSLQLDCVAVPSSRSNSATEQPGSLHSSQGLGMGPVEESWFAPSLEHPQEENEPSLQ
The assay can be described thus: ADP-Glo kinase assay: catalytic activity of RIPK1 (autophosphorylation, conversion of ATP to ADP). Type of assay: biochemical. The procedure, abridged:
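hRIPK1 (aa 1-375) fusion protein (3.6 μg/ml final) was preincubated 30 min at rt with compound (33300-1.69 nM, 1% DMSO), then 50 μM ATP was added for 240 min at rt. ADP from autophosphorylation was measured by ADP-Glo luminescence and curves fitted by nonlinear regression.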
(In general: ADP-Glo first removes unused ATP, then detects ADP through luciferase.)

A further assay concerns U937 cells. Description: Cellular assay in U937 cells: activity of RIPK1 inhibitors on TNFα/zVAD.fmk-induced cell death (necroptosis), CellTiter 96 AQueous (MTS) readout. Type of assay: cell-based. The settings on record: Homo sapiens, U-937. The gist of the method: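 Necroptosis was measured by viable-cell MTS reduction (4 h, absorbance 490 nm) after overnight (18–24 h) 37° C culture. Cell suspensions of U937 cells carried TNFα (100 ng/ml) plus zVAD.fmk (50 μM) before compound was added. A 10-point curve (10 μM–0.26 nM or 1 μM–0.07 nM) was run in duplicate, normalised to the control lacking TNFα/zVAD.fmk.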

Take `Cc1cn2nc(C[C@H]3CC[C@H](C(=O)N4OCC[C@H]4c4cc(F)cc(F)c4)CC3)cc(C)c2n1` [compound 291, trans-[(3S)-3-(3,5-difluorophenyl)isoxazolidin-2-yl]-[4-[(2,8-dimethylimidazo[1,2-b]pyridazin-6-yl)methyl]cyclohexyl]methanone]: the IC50 is 12 nM in assay [1] and 1 nM in the assay on U937 cells.

In the case of `N#Cc1cc(F)c2ncn(C[C@H]3CC[C@H](C(=O)N4OCC[C@H]4c4cc(F)cc(F)c4)CC3)c2c1` [compound 37, trans-1-((4-((S)-3-(3,5-difluorophenyl)isoxazolidine-2-carbonyl)cyclohexyl)methyl)-4-fluoro-1H-benzo[d]imidazole-6-carbonitrile], the results for the half-maximal inhibitory concentration (IC50) (in assay [1]; in the assay with U937 cells) were 17 nM and 5 nM, respectively.

Take `Cc1ccc(C[C@H]2CC[C@H](C(=O)N3OCC[C@H]3c3cnc(C)c(F)c3)CC2)nn1` [compound 388, trans-[(3S)-3-(5-fluoro-6-methylpyridin-3-yl)-1,2-oxazolidin-2-yl]-[4-[(6-methylpyridazin-3-yl)methyl]cyclohexyl]methanone]: the concentration for half-maximal inhibition (IC50) was determined as 97 nM in assay [1] and 176 nM in the assay with U937 cells.

As for `NC(=O)c1ccc2cnn(C[C@H]3CC[C@H](C(=O)N4OCC[C@H]4c4cnccn4)CC3)c2c1` [Compound 229, trans-1-[[4-[(3S)-3-pyrazin-2-ylisoxazolidine-2-carbonyl]cyclohexyl]methyl]indazole-6-carboxamide], the 50% inhibitory concentration (IC50) in assay [1] was determined as 25 nM; in the assay with U937 cells, 78 nM.

Take `Cc1cn2cc(C[C@H]3CC[C@H](C(=O)N4OCC[C@H]4c4cc(F)cc(F)c4)CC3)ccc2n1` [compound 227, trans-[(3S)-3-(3,5-difluorophenyl)isoxazolidin-2-yl]-[4-[(2-methylimidazo[1,2-a]pyridin-6-yl)methyl]cyclohexyl]methanone]: the IC50 is 23 nM in assay [1] and 5 nM in the assay with U937 cells.

Take `N#Cc1cncc([C@@H]2CCON2C(=O)[C@H]2CC[C@H](Cn3cc(C#N)ccc3=O)CC2)c1` [compound 122, trans-1-[[4-[(3S)-3-(5-cyano-3-pyridyl)isoxazolidine-2-carbonyl]cyclohexyl]methyl]-6-oxo-pyridine-3-carbonitrile]: the IC50 was found to be 125 nM in assay [1] and 797 nM in the assay with U937 cells.

Regarding `N#Cc1cc(F)cc([C@@H]2CCON2C(=O)[C@H]2CC[C@H](Cn3ccc4cc(F)c(C#N)cc43)CC2)c1` [compound 22, trans-1-((4-((S)-3-(3-cyano-5-fluorophenyl)isoxazolidine-2-carbonyl)cyclohexyl)methyl)-5-fluoro-1H-indole-6-carbonitrile], the values for the IC50 (in assay [1]; in the assay on U937 cells) were 20 nM and 2 nM, respectively.

For `N#Cc1cc(F)cc([C@@H]2CCON2C(=O)[C@H]2CC[C@H](Cc3ccc(CCO)c(F)c3)CC2)c1` [compound 279, trans-3-fluoro-5-[(3S)-2-[4-[[3-fluoro-4-(2-hydroxyethyl)phenyl]methyl]cyclohexanecarbonyl]isoxazolidin-3-yl]benzonitrile], the IC50 stood at 7 nM in assay [1] and 9 nM with U937 cells.

In the case of `Cc1ccc(C[C@H]2CC[C@H](C(=O)N3OCC[C@H]3c3cnccn3)CC2)nn1` [compound 357, trans-[4-[(6-methylpyridazin-3-yl)methyl]cyclohexyl]-[(3S)-3-pyrazin-2-ylisoxazolidin-2-yl]methanone], the IC50 in assay [1] was found to be 138 nM; in the assay with U937 cells, 531 nM.

For `COc1cncc([C@@H]2CCON2C(=O)[C@H]2CC[C@H](Cn3ccc4ncc(C#N)cc43)CC2)n1` [compound 185, trans-1-[[4-[(3S)-3-(6-methoxypyrazin-2-yl)isoxazolidine-2-carbonyl]cyclohexyl]methyl]pyrrolo[3,2-b]pyridine-6-carbonitrile], the IC50 in assay [1] is 32 nM; in the assay on U937 cells, 34 nM.

Turning to `Cc1cnc([C@@H]2CCON2C(=O)[C@H]2CC[C@H](Cc3ccnn3C)CC2)cn1` [compound 395, trans-[(3S)-3-(5-methylpyrazin-2-yl)-1,2-oxazolidin-2-yl]-[4-[(2-methylpyrazol-3-yl)methyl]cyclohexyl]methanone], the figures for the IC50 (in assay [1]; in the assay with U937 cells) were 44 nM and 45 nM, respectively.

In the case of `Cc1ccc([C@@H]2CCON2C(=O)[C@H]2CC[C@H](Cc3cc(C)ncc3F)CC2)cn1` [compound 386, trans-[4-[(5-fluoro-2-methylpyridin-4-yl)methyl]cyclohexyl]-[(3S)-3-(6-methylpyridin-3-yl)-1,2-oxazolidin-2-yl]methanone], the IC50 in assay [1] was 25 nM; with U937 cells, 13 nM.

Take `Cn1cc(C[C@H]2CC[C@H](C(=O)N3OCC[C@H]3c3cnccn3)CC2)cn1` [compound 151, trans-[4-[(1-methylpyrazol-4-yl)methyl]cyclohexyl]-[(3S)-3-pyrazin-2-ylisoxazolidin-2-yl]methanone]: the IC50 in assay [1] was 46 nM; in the assay with U937 cells, 214 nM.

As for `Cc1c(F)cc([C@@H]2CCON2C(=O)[C@H]2CC[C@H](Cc3cncc(C#N)c3C)CC2)cc1C#N` [compound 287, trans-5-[[4-[(3S)-3-(3-cyano-5-fluoro-4-methyl-phenyl)isoxazolidine-2-carbonyl]cyclohexyl]methyl]-4-methyl-pyridine-3-carbonitrile], the results for the IC50 (in assay [1]; in the assay on U937 cells) were 2 nM and 1 nM, respectively.

Regarding `N#Cc1cncc([C@@H]2CCON2C(=O)[C@H]2CC[C@H](Cn3cnc4cc(C#N)c(F)cc43)CC2)c1` [compound 65, trans-1-((4-((S)-3-(5-cyanopyridin-3-yl)isoxazolidine-2-carbonyl)cyclohexyl)methyl)-6-fluoro-1H-benzo[d]imidazole-5-carbonitrile], the IC50 was found to be 51 nM in assay [1] and 164 nM with U937 cells.

On to `N#Cc1cc(C[C@H]2CC[C@H](C(=O)N3OCC[C@H]3c3cnccn3)CC2)ccc1F` [compound 243, trans-2-fluoro-5-[[4-[(3S)-3-pyrazin-2-ylisoxazolidine-2-carbonyl]cyclohexyl]methyl]benzonitrile], for which the IC50 in assay [1] came out at 13 nM; with U937 cells, 3 nM.

`Cc1nn(C[C@H]2CC[C@H](C(=O)N3OCC[C@H]3c3cc(F)cc(F)c3)CC2)c2cc(C(N)=O)cc(F)c12` [compound 103, trans-1-((4-((S)-3-(3,5-difluorophenyl)isoxazolidine-2-carbonyl)cyclohexyl)methyl)-4-fluoro-3-methyl-1H-indazole-6-carboxamide]: the results for the concentration for half-maximal inhibition (IC50) (in assay [1]; in the assay with U937 cells) were 23 nM and 22 nM, respectively.

For the compound `N#Cc1cc(F)cc([C@@H]2CCON2C(=O)[C@H]2CC[C@H](Cc3ccc(F)c(C(N)=O)c3)CC2)c1` [compound 195, trans-5-[[4-[(3S)-3-(3-cyano-5-fluoro-phenyl)isoxazolidine-2-carbonyl]cyclohexyl]methyl]-2-fluoro-benzamide], the IC50 in assay [1] was determined as 12 nM; with U937 cells it was 6 nM.

For `O=C([C@H]1CC[C@H](Cc2ccc(CO)c(F)c2)CC1)N1OCC[C@H]1c1cc(F)cc(F)c1` [compound 265, trans-[(3S)-3-(3,5-difluorophenyl)isoxazolidin-2-yl]-[4-[[3-fluoro-4-(hydroxymethyl)phenyl]methyl]cyclohexyl]methanone], the figures for the IC50 (in assay [1]; in the assay on U937 cells) were 8 nM and 1 nM, respectively.

Regarding `Cc1cc(C[C@H]2CC[C@H](C(=O)N3OCC[C@H]3c3ccc(F)cc3)CC2)cn2c(C)nnc12` [compound 319, trans-[4-[(3,8-dimethyl-[1,2,4]triazolo[4,3-a]pyridin-6-yl)methyl]cyclohexyl]-[(3S)-3-(4-fluorophenyl)isoxazolidin-2-yl]methanone], the figures for the IC50 (in assay [1]; in the assay on U937 cells) were 14 nM and 33 nM, respectively.

For the compound `Cc1cc2nnc(C)n2cc1C[C@H]1CC[C@H](C(=O)N2OCC[C@H]2c2ccc(F)c(F)c2)CC1` [compound 318, [(3S)-3-(3,4-difluorophenyl)isoxazolidin-2-yl]-[4-[(3,7-dimethyl-[1,2,4]triazolo[4,3-a]pyridin-6-yl)methyl]cyclohexyl]methanone], the concentration for half-maximal inhibition (IC50) was 22 nM in assay [1] and 27 nM with U937 cells.

With `Cc1nc2cc(C[C@H]3CC[C@H](C(=O)N4OCC[C@H]4c4csc(C)n4)CC3)ccn2n1` [compound 372, trans-[(S)-3-(2-Methyl-thiazol-4-yl)-isoxazolidin-2-yl]-[4-(2-methyl-[1,2,4]triazolo[1,5-a]pyridin-7-ylmethyl)-cyclohexyl]-methanone], the values for the IC50 (in assay [1]; in the assay on U937 cells) were 53 nM and 103 nM, respectively.

As to `N#Cc1cc(F)cc([C@@H]2CCON2C(=O)[C@H]2CC[C@H](Cn3ncc4cc(F)ccc43)CC2)c1` [compound 54, trans-3-fluoro-5-((S)-2-(4-((5-fluoro-1H-indazol-1-yl)methyl)cyclohexane-1-carbonyl)isoxazolidin-3-yl)benzonitrile], the IC50 turned out to be 21 nM in assay [1] and 6 nM in the assay on U937 cells.

Regarding `COc1cncc([C@@H]2CCON2C(=O)[C@H]2CC[C@H](Cn3cc4ccc(C#N)cc4n3)CC2)n1` [compound 189, trans-2-[[4-[(3S)-3-(6-methoxypyrazin-2-yl)isoxazolidine-2-carbonyl]cyclohexyl]methyl]indazole-6-carbonitrile], the IC50 in assay [1] is 138 nM; with U937 cells, 623 nM.

Values taken from US20260158009A1 (GENZYME CORPORATION, priority 2023, published 2026).
